Results on two compounds are retold here after patent publication US8350007B2, “Crystal structure of human mitoNEET protein” (The Regents of the University of California, priority 2007, dated 2013).

One data set deals with serum albumin (Homo sapiens, UniProt P02768). To be noted: after patient ingestion, prior to cellular uptake; cited from earlier work.
Data set [1] is described as follows: Blood glucose levels in diabetic ZDF rats treated with rosiglitazone. The format is in vivo, rat. The conditions noted are these: after three weeks of rosiglitazone 10 mg/kg by gavage. As for the experimental part: Sixteen male ZDF rats were housed in filter cages, 2 or 3 animals per cage. Weight and blood glucose levels were measured every week. The blood glucose was measured at the fed state (07:30 am) and after 6 hours fast (1:[…]). The Animals were divided into two groups: a control group, and a rosiglitazone-treated group. Animals were treated daily for 3 weeks once a day, 5 times a week, with rosiglitazone, 10 mg/kg by gavage (0.7 ml) for the rosi-treated rats; or 0.7 ml saline for the control rats. After three weeks, liver, muscle and epididymal fat were collected and immediately frozen.
The average glucose blood level after fed of the control group was >240 mg/dl; in the rosiglitazone-treated rats some responded in a medium manner to the treatment; after three weeks of rosiglitazone treatment their glucose blood levels after fed was ˜120-140 mg/dl and some rats responded very well to rosiglitazone treatment and after three weeks their glucose blood levels after fed was ˜80 mg/dl.

Sequence of serum albumin (P02768 25-609): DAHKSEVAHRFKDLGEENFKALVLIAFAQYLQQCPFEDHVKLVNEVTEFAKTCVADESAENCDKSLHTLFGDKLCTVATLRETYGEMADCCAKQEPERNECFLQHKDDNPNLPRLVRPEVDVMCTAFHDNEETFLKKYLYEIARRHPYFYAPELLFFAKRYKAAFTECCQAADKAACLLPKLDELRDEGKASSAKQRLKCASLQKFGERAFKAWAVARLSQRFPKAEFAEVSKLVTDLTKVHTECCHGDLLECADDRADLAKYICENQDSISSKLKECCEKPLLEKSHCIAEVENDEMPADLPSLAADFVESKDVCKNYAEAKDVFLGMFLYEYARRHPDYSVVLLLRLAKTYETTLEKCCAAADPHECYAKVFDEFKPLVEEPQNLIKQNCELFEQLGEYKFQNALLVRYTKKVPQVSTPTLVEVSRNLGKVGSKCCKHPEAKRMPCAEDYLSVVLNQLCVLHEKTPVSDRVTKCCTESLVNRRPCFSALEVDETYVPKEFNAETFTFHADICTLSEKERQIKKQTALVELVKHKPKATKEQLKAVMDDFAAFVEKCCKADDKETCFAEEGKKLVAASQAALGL

For `CCc1ccc(CCOc2ccc(CC3SC(=O)NC3=O)cc2)nc1` (stereo not drawn) [pioglitazone], the “binding to serum albumin” value on serum albumin is listed as “largely bound to serum albumin”. In the case of `CN(CCOc1ccc(CC2SC(=O)NC2=O)cc1)c1ccccn1` (stereo not drawn) [rosiglitazone], the “glucose blood levels after fed” value is 120 to 140 mg/dL in data set [1] (ZDF rats responding in a medium manner) and roughly 80 mg/dL in data set [1] (ZDF rats responding very well).
